Experimental data reported in patent US20160015637A1, “ANTI-ITCHING POWDER” (Lilac Laboratory Co., Ltd., priority 2014, published 2016).

Assay: itch prevention effect experiment (somesthetic testing, powder applied to the skin over the whole body)
Type: in vivo, examinees (male: 2, female: 1)
Details: for proportion of itch: itches without application set to 100, climbing/running 100 times, eight hours from test start; for itch removal / itch prevention effect bodily sensed: somesthetic testing, result in words
Experimental: Purpose of Experiment The fine powder of the aluminum chloride hexahydrate and the cyclodextrin (referred to as the CD) were each used alone for application to the skin over the whole body. From the result, whether the itch prevention effect was able to be bodily sensed or not was determined through somesthetic testing.
Participated Examinees three (male: 2, female: 1)
Testing Method Fine powder compositions of Experiment 1 to Experiment 3 were applied to the skin over the whole body. The climbing of a low mountain (altitude: 300 to 400 m) of 2 to 20 km and running of 2 to 15 km were executed 100 times appropriately for all seasons and for two years with the respective samples. Whether the itch was clearly removed or not and the appearance of the itch was able to be prevented or not were measured setting eight hours from the test start as terminal time. During the period, the somesthetic testing was conducted for determination. The total count of itches developed without application of various kinds of fine powder agents to the skin over the whole body (the head, the face, the body, and the entire feet) was set to 100. The degree of the itch was indicated by a “proportion of itch.”

SMILES	proportion of itch [%]	itch removal / itch prevention effect bodily sensed
OC[C@H]1O[C@@H]2O[C@H]3[C@H](O)[C@@H](O)[C@@H](O[C@H]4[C@H](O)[C@@H](O)[C@@H](O[C@H]5[C@H](O)[C@@H](O)[C@@H](O[C@H]6[C@H](O)[C@@H](O)[C@@H](O[C@H]7[C@H](O)[C@@H](O)[C@@H](O[C@H]8[C@H](O)[C@@H](O)[C@@H](O[C@H]1[C@H](O)[C@H]2O)O[C@@H]8CO)O[C@@H]7CO)O[C@@H]6CO)O[C@@H]5CO)O[C@@H]4CO)O[C@@H]3CO [β-CD]	100	the itch prevention effect was not able to be bodily sensed
OC[C@H]1O[C@@H]2O[C@H]3[C@H](O)[C@@H](O)[C@@H](O[C@H]4[C@H](O)[C@@H](O)[C@@H](O[C@H]5[C@H](O)[C@@H](O)[C@@H](O[C@H]6[C@H](O)[C@@H](O)[C@@H](O[C@H]7[C@H](O)[C@@H](O)[C@@H](O[C@H]8[C@H](O)[C@@H](O)[C@@H](O[C@H]9[C@H](O)[C@@H](O)[C@@H](O[C@H]1[C@H](O)[C@H]2O)O[C@@H]9CO)O[C@@H]8CO)O[C@@H]7CO)O[C@@H]6CO)O[C@@H]5CO)O[C@@H]4CO)O[C@@H]3CO [γ-CD]	100	the itch prevention effect was not able to be bodily sensed
OC[C@H]1O[C@@H]2O[C@H]3[C@H](O)[C@@H](O)[C@@H](O[C@H]4[C@H](O)[C@@H](O)[C@@H](O[C@H]5[C@H](O)[C@@H](O)[C@@H](O[C@H]6[C@H](O)[C@@H](O)[C@@H](O[C@H]7[C@H](O)[C@@H](O)[C@@H](O[C@H]1[C@H](O)[C@H]2O)O[C@@H]7CO)O[C@@H]6CO)O[C@@H]5CO)O[C@@H]4CO)O[C@@H]3CO [α-CD]	100	The itch was not removed
